Measurements published in patent publication US9963701B2, “Pharmaceutical composition for treatment of radiation- or drug-resistant cancer comprising HRP-3 inhibitor” (KOREA INSTITUTE OF RADIOLOGICAL & MEDICAL SCIENCES, priority 2013, dated 2018).
Entries after “also recorded” stand apart in the source; their conditions may differ.

Legend:
Type in all cases: cell-based, human
IκB, c-Myc, Noxa = test: Western blot of IκB, c-Myc, Noxa in H1299 cells; conditions: siHRP-3-treated H1299 cells
Protocol: Specifically, a cell lysate obtained by lysing the scrambled siRNA- or siHRP-3-treated H1299 cells cultured in Example 6-2 was analyzed by Western blot using anti-HRP-3 antibodies, anti-IκB antibodies (Santa Cruz Biotechnology Inc., Santa Cruz, Calif., USA), anti-c-Myc antibodies (Calbiochem, San Diego, Calif., USA) and anti-Noxa antibodies (Calbiochem, San Diego, Calif., USA). Herein, β-actin was used as a loading control (FIG. 9A; left). As control cells, H1299 cells were treated with scrambled siRNA alone.
H1299 cells subjected to the inhibition of HRP-3 expression and radiation were obtained in the same manner as described in Example 6-4, except that radiation alone, was performed as anticancer treatment. The thus obtained H1299 cells were lysed to obtain a cell lysate. The expression levels of IκB, c-Myc and Noxa were measured in the same manner as described in Example 8-1, except that the thus obtained lysate was used, and NF-κB activity was also measured in the same manner as described in Example 8-1 (FIG. 9B). As control cells, H1299 cells treated with scrambled siRNA alone were used.
The thus obtained cells were lysed to obtain a cell lysate. The expression levels of IκB, c-Myc and Noxa were measured by Western blot analysis in the same manner as described in Example 8-1, except that the cell lysate was used. Also, NF-κB activity was measured by a reporter gene assay (FIG. 9C). […]

NF-κB = NF-κB reporter gene assay (pNF-κB-luc) in H1299 cells; conditions: siHRP-3-treated H1299 cells, 2 μM BAY 11-7082, 48 hours
Protocol: In addition, the activity of NF-κB in the scrambled siRNA- or siHRP-3-treated H1299 cells was measured by a reporter gene assay using Dual-Reporter™. Specifically, H1299 cells were transfected with 0.5 μg plasmid DNA (pNF-κB-luc; Stratagene, Cambridge, UK) in Dual-Reporter™, and then the luciferase activity in the cells was measured using a luminometer, and the activity of NF-κB was measured at various protein concentrations (FIG. 9A; right).

ROS [1] = test: ROS production by FACS analysis using DCF-DA in A549 cells; conditions: 1 mM NAC, 48 hours
Protocol: Thus, it was predicted that HRP-3 would influence ROS production, and the following experiment was performed in order to confirm this prediction. […] The level of ROS produced in the cells was determined by FACS analysis using 10 nM DCF-DA (FIG. 4C).
Further, A549 cells were transfected with 100 nM scrambled siRNA or HRP-3 siRNA without or with exposure to 10 Gy radiation and cultured, and the level of ROS produced in the cells was assessed by FACS analysis using 10 nM DCF-DA (FIG. 4D).

[2] = system: p53, pp53, PUMA, cleaved PARP; test: Western blot of cleaved PARP, p53, pp53, PUMA in A549 cells; conditions: siHRP-3-transfected A549 cells, 1 mM NAC
Text: Additionally, the effect of p53 on the induction of apoptosis was examined. […] Next, the levels of HRP-3, cleaved PARP, p53, pp53, and PUMA proteins produced in the cells were detected by Western blot analysis (FIG. 5D).

ROS [3] = test: ROS production by DCF-DA (confocal, FACS) in H1299 cells; conditions: 3 mM NAC
Protocol: According to a known method, the thus obtained H1299 cells were treated with 10 nM DCF-DA (2′,7′-dichlorofluorescein diacetate) for 20 minutes, and the produced ROS was detected (M. J. Kim, et al., Cancer Lett, 339:15-24, 2013) (FIG. 8D). The detection of ROS was performed by observing the DCF-DA-stained cells with a laser scanning confocal microscope and analyzing the DCF-DA-stained cells by FACS analysis to determine the production of ROS.

A549 cells = test: Apoptosis by FACS analysis (annexin V / propidium iodide) in A549 cells; conditions: 0.1 μg/ml doxorubicin or 5 ng/ml vinblastine, 48 hours
Protocol: (§1) Human NSCLC cell lines (A549 and H460) were purchased from the ATCC and cultured in RPMI-1640 medium containing 10% FBS, 50 μg/ml streptomycin, and 50 units/ml penicillin. The cultured cells were irradiated using a ^137Cs-ray source (Atomic Energy of Canada, Ltd., Canada) at a dose rate of 3.81 Gy/min and were treated with 0.1 μg/ml doxorubicin or 5 ng/ml vinblastine. The treated cells were treated with trypsin, washed with PBS, stained with annexin V and propidium iodide, and then analyzed by FACS using a flow cytometer to measure apoptosis (FIG. 1A).
In addition, A549 cells were transfected with 100 nM scrambled siRNA or HRP-3 siRNA and cultured for 2 days. Then, changes in the morphology of the cells were observed under an optical microscope, and the death rate of the cells was measured by FACS analysis (FIG. 2D). Also, the levels of two apoptotic markers (cleaved PARP and active caspase-3) were determined by Western blotting (FIG. 2E).
In order to examine this correlation, the effect of HRP-3 in the A549 cells treated with radiation or the drug was analyzed. Specifically, A549 cells were transfected with 100 nM scrambled siRNA or HRP-3 siRNA, and then treated with 10 Gy radiation, 0.1 μg/ml doxorubicin or 5 ng/ml vinblastine and cultured. The death rate of the cultured cells was determined by FACS analysis (FIG. 3B).

H460 cells = test: Apoptosis by FACS analysis in H460 cells; conditions: 0.1 μg/ml doxorubicin or 5 ng/ml vinblastine, 48 hours
Protocol: as §1
(§2) Specifically, while each type of H460 cells and H1299 cells were inoculated into a culture dish at a density of 3.5×10^5 cells/cm^2 and cultured in RPMI-1640 medium, each type of cell was radiated with 0 and 10 Gy of ^137Cs-rays, or the cell culture was treated with 0 and 0.1 μg/ml of doxorubicin or 0 and 5 ng/ml of vinblastine (Sigma, St. Louis, Mo., USA) and cultured. Next, the death rate of the cells was determined by FACS analysis according to a known method (M. J. Kim, et al., Cancer Lett, 339:15-24, 2013) (FIG. 7A).

H1299 cells = test: Apoptosis by FACS analysis in H1299 cells; conditions: 0.1 μg/ml doxorubicin or 5 ng/ml vinblastine, 48 hours
Protocol: as §2
The inhibition of HRP-3 expression in H1299 cells was performed according to the method in Example 6-2, and the H1299 cells, which were inhibited of HRP-3 expression, were subjected to anticancer treatment (radiation, doxorubicin treatment or vinblastine treatment), and their apoptotic rate was measured (FIG. 7D).
The morphological change and apoptotic rate of H1299 cells were measured in the same manner as described in Example 6-4, except that radiation alone was performed as anticancer treatment (FIG. 8A).

HRP-3 = HRP-3 protein level after radiation or drug treatment in H1299 cells (Western blot); conditions: 0.1 μg/ml doxorubicin or 5 ng/ml vinblastine
Protocol: While H1299 cells were cultured in RPMI-1640 medium, the cells were radiated with 10 Gy of ^137Cs-rays, or the cell culture was treated with 0.1 μg/ml doxorubicin or 5 ng/ml vinblastine, and the change in the expression level of HRP-3 as a function of time for a culture time of 48 hours was analyzed by Western blotting or immunofluorescence staining (FIGS. 6D and 6E).

SMILES | resistance of A549 cells compared to H460 cells (apoptosis) (A549 cells) | apoptotic rate (H460 cells) | apoptotic rate (H1299 cells) | time after treatment at which level of HRP-3 peaked (HRP-3) | other results
Cc1ccc(S(=O)(=O)/C=C/C#N)cc1 [BAY 11-7082] |  |  |  |  | IκB, c-Myc and Noxa expression changes due to inhibition of HRP-3 expression (IκB, c-Myc, Noxa; 2 μM BAY 11-7082, 48 hours): levels similar to the control cells; increase in NF-κB activity due to inhibition of HRP-3 expression (NF-κB): levels similar to the control cells
CC(=O)N[C@@H](CS)C(=O)O [NAC, N-acetyl cysteine] |  |  |  |  | effect on ROS generation induced by inhibition of HRP-3 expression (ROS [1]): reduced; also recorded: inhibited; induction of cleaved PARP by HRP-3 deletion [2]: significantly decreased; p53 and PUMA levels [2]: dramatically decreased; ROS production after inhibition of HRP-3 expression and radiation (ROS [3]): decreased to that of control cells; IκB, c-Myc and Noxa expression changes due to inhibition of HRP-3 expression (IκB, c-Myc, Noxa; 3 mM NAC, 48 hours): levels similar to the control cells
COc1cccc2c1C(=O)c1c(O)c3c(c(O)c1C2=O)C[C@@](O)(C(=O)CO)C[C@@H]3O[C@H]1C[C@H](N)[C@H](O)[C@H](C)O1 [doxorubicin] | higher levels of resistance | about 39% | about 23% | 12 h | 
CC[C@]1(O)C[C@@H]2CN(CCc3c([nH]c4ccccc34)[C@@](C(=O)OC)(c3cc4c(cc3OC)N(C)[C@H]3[C@@](O)(C(=O)OC)[C@H](OC(C)=O)[C@]5(CC)C=CCN6CC[C@]43[C@@H]65)C2)C1 [vinblastine] | higher levels of resistance | about 43% | about 26% | 12 h | 
